Patent publication US8921409B2, “Combination of 4-{3-[cis-hexahydrocyclopenta[c]pyrrol-2(1H)-yl]propoxy}benzamide and a NMDA receptor antagonist and pharmaceutical compositions containing the same” (Les Laboratoires Servier, priority 2011, dated 2014)
Counter-ions that a name gives are not always drawn.

Tested on: middle-aged (14-15 months old) C57B16 mouse
Assay: Contextual serial discrimination test (model of episodic memory)
Format: in vivo
Description: The effects of 4-{3-[cis-hexahydrocyclopenta[c]pyrrol-2(1H)-yl]propoxy}benzamide and memantine (both in the form of a hydrochloride), administered on their own or in combination, were studied using a contextual discrimination test in the middle-aged (14-15 months old) C57B16 mouse (n=12 per group) (Célérier et al., Learn Mem., 2004, 11(2), 196-204; Tronche et al., Behav. Brain Res., 2010, 215(2): 255-60). In this model, the middle-aged mice have a specific dysfunction of contextual episodic memory compared to young mice, without a deficiency in spatial memory. This model is relevant for evaluating the effects of products in Alzheimer's disease because patients suffering from that form of dementia also have disturbances of contextual episodic memory, this being the case from a very early stage (Gold and Budson, Expert Rev Neurother., 2008, 8(12): 1879-1891).
The mice, placed in a box with raised edges, learn two types of consecutive spatial discrimination (D1: white floor, then D2: black floor) on a floor with four holes, in which just one of the holes is baited, the arrangement being opposite in D1 and in D2. The colour of the floor (black or white) constitutes the internal context specific to each discrimination. 24 hours after the learning step, the mice are returned to the white contextual floor, and the following are measured: • the percentage of correct responses (i.e. % of lowering the head into the hole that was baited during the learning exercise on the white floor), • the percentage of interfering responses (i.e. % of lowering the head into the hole that was baited during the learning exercise on the black floor, the last context presented to the mice), • and the percentage of errors (i.e. % of lowering the head into the two holes that were not baited during learning, whether on the white floor or on the black floor (see FIG. 1).
The power of contextual memory is defined as being the difference between the percentage of correct responses and the percentage of interfering responses. […]

Row | SMILES | power of contextual memory (% correct responses minus % interfering responses) (memantine hydrochloride 1 mg/kg of base per os, chronic treatment for 9 days, carrier −34%) [%] | power of contextual memory (% correct responses minus % interfering responses) (compound S hydrochloride 0.1 mg/kg of base per os, chronic treatment for 9 days, carrier −34%) [%] | power of contextual memory (% correct responses minus % interfering responses) (compound S on its own, 1 mg/kg of base per os)
1 | CC12CC3CC(C)(C1)CC(N)(C3)C2 [memantine hydrochloride, memantine, reference compound] | −2 |  | 
2 | NC(=O)c1ccc(OCCCN2C[C@H]3CCC[C@H]3C2)cc1 [compound S, 4-{3-[cis-hexahydrocyclopenta[c]pyrrol-2(1H)-yl]propoxy}benzamide] |  | −15 | +14%
